Measurements taken from ChEMBL document CHEMBL2424577, “Cytotoxicity and DNA-binding property of water-soluble naphthalene diimide derivatives bearing 2-oligoethoxy ethanamine side chain end-labeled with tertiary amino groups” (Med Chem Res, 2013).
pIC50: −log10 of the molar value. Calls of active or inactive are those of the source. No cut-off for these calls is given here.

Assays:
A549 = assay: Antiproliferative activity against human A549 cells after 48 hrs by MTT assay; format: functional, cell-based; details: A549, 48 h
HeLa = assay: Antiproliferative activity against human HeLa cells after 48 hrs by MTT assay; format: functional, cell-based
K562 = assay: Antiproliferative activity against human K562 cells after 48 hrs by MTT assay; format: functional, cell-based; details: K562, 48 h
[1] = Binding affinity to G-quadruplex DNA (unknown origin) in phosphate buffer at pH 7.4 at 2 x 10 '-5 M by CD spectra analysis
DNA [2] = assay: Binding affinity to calf thymus DNA in phosphate buffer at pH 7.4 at 2 x 10 '-5 M by CD spectra analysis; format: nucleic-acid assay; details: Bos taurus
[3] = Binding affinity to G-quadruplex DNA (unknown origin) in phosphate buffer at pH 7.4 at 5 x 10 '-5 M by fluorescence spectroscopy
DNA [4] = assay: Binding affinity to calf thymus DNA in phosphate buffer at pH 7.4 at 5 x 10 '-5 M by fluorescence spectroscopy; format: nucleic-acid assay; details: Bos taurus
[5] = Binding affinity to G-quadruplex DNA (unknown origin) in phosphate buffer at pH 7.4 assessed as hypochromicity at 5 x 10 '-5 M by Uv-Vis spectroscopy
DNA [6] = assay: Binding affinity to calf thymus DNA in phosphate buffer at pH 7.4 assessed as hypochromicity at 5 x 10 '-5 M by Uv-Vis spectroscopy; format: nucleic-acid assay; details: Bos taurus
[7] = Binding affinity to G-quadruplex DNA (unknown origin) in phosphate buffer at pH 7.4 at 5 x 10 '-5 M by Uv-Vis spectroscopy
DNA [8] = assay: Binding affinity to calf thymus DNA in phosphate buffer at pH 7.4 at 5 x 10 '-5 M by Uv-Vis spectroscopy; format: nucleic-acid assay; details: Bos taurus

Row | SMILES | pIC50 (A549) | pIC50 (HeLa) | pIC50 (K562) | Activity [1] | Activity (DNA [2]) | K [3] | K (DNA [4]) | Activity [5] [%] | Activity (DNA [6]) [%] | Kb [7] | Kb (DNA [8])
1 | CN(C)CCN1C(=O)c2ccc3c4c(c(NCCOCCOCCOCCN5CCCC5)cc(c24)C1=O)C(=O)N(CCN(C)C)C3=O | 5.15 | 5.29 | 5.15 | – | – | – | – | – | – | – | –
2 | CN(C)CCN1C(=O)c2ccc3c4c(c(NCCOCCN5CCOCC5)cc(c24)C1=O)C(=O)N(CCN(C)C)C3=O | 5.53 | 5.58 | 6.17 | Active | Active | 6.8 ×10⁵ /M | 3.9 ×10⁶ /M | 13 | 31 | 2.8 ×10⁵ /M | 2.1 ×10⁶ /M
3 | CN(C)CCN1C(=O)c2ccc3c4c(c(NCCOCCOCCN5CCN(C)CC5)cc(c24)C1=O)C(=O)N(CCN(C)C)C3=O | 5.16 | 5.01 | 5.56 | – | – | – | – | – | – | – | –
4 | CN(C)CCN1C(=O)c2ccc3c4c(c(NCCOCCOCCOCCN5CCN(C)CC5)cc(c24)C1=O)C(=O)N(CCN(C)C)C3=O | 5.13 | 5.54 | 5.44 | – | – | – | – | – | – | – | –
5 | CN(C)CCN1C(=O)c2ccc3c4c(c(NCCOCCOCCOCCN5CCCCC5)cc(c24)C1=O)C(=O)N(CCN(C)C)C3=O | 5.16 | 5.39 | 5.53 | – | – | – | – | – | – | – | –

Results, then the compound that gave them:

Row | pIC50 (A549) | pIC50 (HeLa) | pIC50 (K562) | Activity [1] | Activity (DNA [2]) | K [3] | K (DNA [4]) | Activity [5] [%] | Activity (DNA [6]) [%] | Kb [7] | Kb (DNA [8]) | SMILES
6 | 5.53 | 5.23 | 5.91 | – | – | – | – | – | – | – | – | CN(C)CCN1C(=O)c2ccc3c4c(c(NCCOCCOCCN5CCCCC5)cc(c24)C1=O)C(=O)N(CCN(C)C)C3=O
7 | 5.54 | 5.30 | 5.60 | – | – | – | – | – | – | – | – | CN(C)CCN1C(=O)c2ccc3c4c(c(NCCOCCOCCN5CCCC5)cc(c24)C1=O)C(=O)N(CCN(C)C)C3=O
8 | 5.53 | 5.28 | 5.52 | – | – | – | – | – | – | – | – | CN(C)CCN1C(=O)c2ccc3c4c(c(NCCOCCN5CCN(C)CC5)cc(c24)C1=O)C(=O)N(CCN(C)C)C3=O
9 | 5.66 | 5.68 | 6.21 | – | – | – | – | – | – | – | – | CN(C)CCN1C(=O)c2ccc3c4c(c(NCCOCCN5CCCCC5)cc(c24)C1=O)C(=O)N(CCN(C)C)C3=O
10 | 5.55 | 5.23 | 5.83 | Active | Active | 2.3 ×10⁴ /M | 5.4 ×10⁵ /M | 11 | 28 | 4.8 ×10⁴ /M | 4.5 ×10⁵ /M | CN(C)CCN1C(=O)c2ccc3c4c(c(NCCOCCOCCN5CCOCC5)cc(c24)C1=O)C(=O)N(CCN(C)C)C3=O
11 | 5.69 | 5.67 | 6.23 | – | – | – | – | – | – | – | – | CN(C)CCN1C(=O)c2ccc3c4c(c(NCCOCCN5CCCC5)cc(c24)C1=O)C(=O)N(CCN(C)C)C3=O
12 | 5.60 | 5.42 | 5.24 | Active | Active | 1.5 ×10⁴ /M | 3.8 ×10⁵ /M | 9 | 25 | 1.5 ×10⁴ /M | 2.3 ×10⁵ /M | CN(C)CCN1C(=O)c2ccc3c4c(c(NCCOCCOCCOCCN5CCOCC5)cc(c24)C1=O)C(=O)N(CCN(C)C)C3=O
